As a reminder, the IC50 is the midpoint of a concentration-inhibition curve.

This note sets out measurements from patent EP1499590B1, “Piperidine derivatives as potassium channel blockers” (AstraZeneca AB, priority 2001, dated 2003).

In this assay the target is T1, human ether-a-go-go-related-gene (hERG)-encoded potassium channel (Homo sapiens, UniProt Q12809).
T1 construct: expressed in transfected cells; host or cells: Human embryonic kidney (HEK) cells, grown under Geneticin G418 selection
The assay can be described thus: hERG-encoded potassium channel inhibition test (whole-cell patch clamp, tail current). Format: cell-based. On the technique in general: Block of hERG is tested as a sign of cardiac risk.

Where [1] appears, read: HEK cells expressing the hERG-encoded channel, tail current after step from +40 mV to -50 mV, room temperature (~20 °C), read-out: IC50.

SMILES strings stand for the structures. Like-named read-outs stand apart in the source and are kept apart here.

T1 sequence (Q12809 whole entry): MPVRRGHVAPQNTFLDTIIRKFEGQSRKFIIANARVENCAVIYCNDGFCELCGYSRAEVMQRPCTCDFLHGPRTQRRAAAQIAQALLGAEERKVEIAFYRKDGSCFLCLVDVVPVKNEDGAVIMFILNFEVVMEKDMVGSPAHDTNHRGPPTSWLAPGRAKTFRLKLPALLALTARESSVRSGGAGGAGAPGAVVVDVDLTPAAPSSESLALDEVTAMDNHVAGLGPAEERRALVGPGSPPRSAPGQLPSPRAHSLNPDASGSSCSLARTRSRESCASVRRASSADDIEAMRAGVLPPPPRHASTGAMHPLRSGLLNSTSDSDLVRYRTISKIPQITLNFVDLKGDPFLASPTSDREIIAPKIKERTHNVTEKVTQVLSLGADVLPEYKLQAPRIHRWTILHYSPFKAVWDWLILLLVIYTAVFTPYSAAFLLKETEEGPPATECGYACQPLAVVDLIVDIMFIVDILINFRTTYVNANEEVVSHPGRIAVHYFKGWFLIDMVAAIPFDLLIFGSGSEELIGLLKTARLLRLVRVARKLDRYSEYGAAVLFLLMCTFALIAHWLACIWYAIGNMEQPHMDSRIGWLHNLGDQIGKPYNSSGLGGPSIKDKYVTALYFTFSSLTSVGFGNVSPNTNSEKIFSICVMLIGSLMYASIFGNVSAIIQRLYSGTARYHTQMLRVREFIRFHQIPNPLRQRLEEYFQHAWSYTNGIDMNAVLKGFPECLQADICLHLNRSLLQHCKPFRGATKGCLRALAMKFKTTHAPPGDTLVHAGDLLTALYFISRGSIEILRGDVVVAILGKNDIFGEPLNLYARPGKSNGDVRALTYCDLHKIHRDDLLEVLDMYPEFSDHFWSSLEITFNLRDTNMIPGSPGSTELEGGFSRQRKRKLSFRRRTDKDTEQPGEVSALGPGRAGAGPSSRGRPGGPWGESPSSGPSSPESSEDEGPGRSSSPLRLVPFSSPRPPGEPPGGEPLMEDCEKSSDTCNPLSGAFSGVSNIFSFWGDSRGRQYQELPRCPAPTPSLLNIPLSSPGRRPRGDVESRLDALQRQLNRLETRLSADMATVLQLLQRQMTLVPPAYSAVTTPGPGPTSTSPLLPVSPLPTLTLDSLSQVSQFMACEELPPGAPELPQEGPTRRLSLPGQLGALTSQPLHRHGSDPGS
Method: This assay determines the ability of a test compound to inhibit the tail current flowing through the human ether-a-go-go-related-gene (hERG)-encoded potassium channel.
One or two days before each experiment, the cells were detached from the tissue culture flasks with Accutase (TCS Biologicals) using standard tissue culture methods. They were then put onto glass coverslips resting in wells of a 12 well plate and covered with 2 ml of the growing media.
For each cell recorded, a glass coverslip containing the cells was placed at the bottom of a Perspex chamber containing bath solution (see below) at room temperature (~20 °C). This chamber was fixed to the stage of an inverted, phase-contrast microscope. Immediately after placing the coverslip in the chamber, bath solution was perfused into the chamber from a gravity-fed reservoir for 2 minutes at a rate of ~ 2 ml/min. After this time, perfusion was stopped.
A patch pipette made from borosilicate glass tubing (GC120F, Harvard Apparatus) using a P-97 micropipette puller (Sutter Instrument Co.) was filled with pipette solution (see hereinafter). The pipette was connected to the headstage of the patch clamp amplifier (Axopatch 200B, Axon Instruments) via a silver/silver chloride wire. The headstage ground was connected to the earth electrode. This consisted of a silver/silver chloride wire embedded in 3% agar made up with 0.85% sodium chloride.
The cell was recorded in the whole cell configuration of the patch clamp technique. Following "break-in", which was done at a holding potential of -80 mV (set by the amplifier), and appropriate adjustment of series resistance and capacitance controls, electrophysiology software (Clampex, Axon Instruments) was used to set a holding potential (-80 mV) and to deliver a voltage protocol. This protocol was applied every 15 seconds and consisted of a 1 s step to +40 mV followed by a I s step to -50 mV. The current response to each imposed voltage protocol was low pass filtered by the amplifier at 1 kHz. The filtered signal was then acquired, on line, by digitising this analogue signal from the amplifier with an analogue to digital converter. […]
The amplitude of the hERG-encoded potassium channel tail current following the step from +40 mV to -50 mV was recorded on-line by Clampex software (Axon Instruments). […]
The effect of each concentration of test compound was quantified by expressing the tail current amplitude in the presence of a given concentration of test compound as a percentage of that in the presence of vehicle.
Test compound potency (IC50) was determined by fitting the percentage inhibition values making up the concentration-effect to a four parameter Hill equation using a standard data-fitting package.

As to `CC(=O)Nc1ccccc1OCC(O)CNC1CCN(Cc2ccc(Cl)cc2)CC1` (stereo not shown) [Comparison A], under setting [1], the half-maximal inhibitory concentration (IC50) worked out at 300 nM. Consider `COc1ccc(NC(C)=O)c(OC[C@@](C)(O)CNC2CCN(Cc3ccc(Cl)cc3)CC2)c1` [Comparison B], for which the half-inhibitory concentration (IC50) under setting [1] is 300 nM. The same measure, in the same setting: to `CC(=O)Nc1ccc(Cl)cc1OCC(O)CNC1CCN(Cc2ccc(Cl)cc2)CC1` (stereo not shown) [Comparison C] belongs 100 nM. In turn, `CC(=O)Nc1ccc(O)cc1OC[C@@](C)(O)CNC1CCN(Cc2ccc(Cl)cc2)CC1` [Example 1, 4-({(2S)-3-[2-(acetylamino)-5-hydroxyphenoxy]-2-hydroxy-2-methylpropyl}ammonio)-1-(4-chlorobenzyl)piperidinium di(2,2,2-trifluoroacetate)] had a concentration for half-maximal inhibition (IC50) of 31600 nM.
